Measurements: ChEMBL document CHEMBL2062504, “Diterpenoid alkaloids from the lateral root of Aconitum carmichaelii” (J Nat Prod, 2012)
Activity calls are given as the source filed them.

Key:
[1] = test system: Peritoneal macrophage cell; assay: Antiinflammatory activity in mouse peritoneal macrophages assessed as inhibition of nitric oxide production at 10 uM; type: functional, cell-based
HCT-8 = assay: Cytotoxicity against human HCT8 cells at 10 uM after 96 hrs by MTT assay; type: functional, cell-based
A549 = assay: Cytotoxicity against human A549 cells at 10 uM after 96 hrs by MTT assay; type: functional, cell-based
WB-F344 = assay: Hepatoprotective activity against DL-galactosamine-induced cell death in rat WB-F344 cells at 10 uM incubated for 1 hr prior to DL-galactosamine-challenge measured after 24 hrs by MTT assay; type: functional, cell-based
MCF7 = assay: Cytotoxicity against human MCF7 cells at 10 uM after 96 hrs by MTT assay; type: functional, cell-based
BGC-823 = assay: Cytotoxicity against human BGC823 cells at 10 uM after 96 hrs by MTT assay; type: functional, cell-based
KETR3 = assay: Cytotoxicity against human Ketr3 cells at 10 uM after 96 hrs by MTT assay; type: functional, cell-based
Liver microsomes = assay: Antioxidant activity in rat liver microsome assessed as inhibition of FeSO4-induced lipid peroxidation at 10 uM incubated for 15 mins prior to FeSO4-challenge measured after 15 mins by modified thiobarbituric acid method; type: functional
Bel-7402 = assay: Cytotoxicity against human Bel7402 cells at 10 uM after 96 hrs by MTT assay; type: functional, cell-based

CCN1C[C@]2(COC)CC[C@H](OC)[C@]34C1[C@H]([C@H](OC)[C@H]23)[C@]1(OC(C)=O)[C@H]2[C@@H](OC(=O)c3ccccc3)[C@](O)(C[C@H]24)[C@@H](OC)[C@@H]1O
inactive: inhibition [1] | Activity (HCT-8) | Activity (A549) | Activity (WB-F344) | Activity (MCF7) | Activity (BGC-823) | Activity (KETR3) | inhibition (Liver microsomes) | Activity (Bel-7402)

CCN1C[C@]2(COC)[C@H](O)C[C@H](OC)[C@]34C1[C@H]([C@H](OC)[C@H]23)[C@@]1(OC(C)=O)C[C@H](OC)[C@@]2(O)C[C@]4(O)[C@@H]1[C@H]2OC(=O)c1ccccc1
inactive: inhibition [1] | Activity (HCT-8) | Activity (A549) | Activity (WB-F344) | Activity (MCF7) | Activity (BGC-823) | Activity (KETR3) | inhibition (Liver microsomes) | Activity (Bel-7402)

CCN1C[C@]2(COC)CC[C@H](OC)[C@]34C1[C@H](C[C@H]23)[C@]1(O)[C@H]2[C@@H](OC(=O)c3ccccc3)[C@](O)(C[C@H]24)[C@@H](OC)[C@@H]1O
inactive: inhibition [1] | Activity (HCT-8) | Activity (A549) | Activity (WB-F344) | Activity (MCF7) | Activity (BGC-823) | Activity (KETR3) | inhibition (Liver microsomes) | Activity (Bel-7402)

CCN1C[C@]2(COC)[C@H](O)C[C@H](OC)[C@]34C1[C@H]([C@H](OC)[C@H]23)[C@]1(OC(C)=O)[C@H]2[C@@H](OC(=O)c3ccccc3)[C@](O)(C[C@]24O)[C@@H](OC)[C@@H]1O
inactive: inhibition [1] | Activity (HCT-8) | Activity (A549) | Activity (WB-F344) | Activity (MCF7) | Activity (BGC-823) | Activity (KETR3) | inhibition (Liver microsomes) | Activity (Bel-7402)

C=C1C[C@]23C[C@H]4[C@@H]5[C@@]6(C)C[C@H](OC(=O)c7ccccc7)[C@@H](OC(C)=O)[C@]57C(C2[C@@H](O)[C@H]1[C@@H](OC(C)=O)[C@H]37)N4[C@H]6O
inactive: inhibition [1] | Activity (HCT-8) | Activity (A549) | Activity (WB-F344) | Activity (MCF7) | Activity (BGC-823) | Activity (KETR3) | inhibition (Liver microsomes) | Activity (Bel-7402)

CCN1C[C@]2(COC)CC[C@H](O)[C@]34C1[C@H]([C@H](OC)[C@H]23)[C@]1(O)[C@H]2[C@@H](OC(=O)/C=C/c3ccccc3)[C@H](C[C@H]24)[C@@H](OC)[C@@H]1O
inactive: inhibition [1] | Activity (HCT-8) | Activity (A549) | Activity (WB-F344) | Activity (MCF7) | Activity (BGC-823) | Activity (KETR3) | inhibition (Liver microsomes) | Activity (Bel-7402)

COC[C@]12CN(C)C3[C@@H]4[C@H](OC)[C@H]1[C@@]3([C@@H](OC)C[C@H]2O)[C@]1(O)C[C@@]2(O)[C@H](OC(=O)c3ccccc3)[C@@H]1[C@]4(O)[C@@H](O)[C@H]2OC
inactive: inhibition [1] | Activity (HCT-8) | Activity (A549) | Activity (WB-F344) | Activity (MCF7) | Activity (BGC-823) | Activity (KETR3) | inhibition (Liver microsomes) | Activity (Bel-7402)

CCN1C(=O)[C@]2(COC)CC[C@H](OC)[C@]34C1[C@H]([C@H](OC)[C@H]23)[C@]1(OC(C)=O)[C@H]2[C@@H](OC(=O)c3ccccc3)[C@](O)(C[C@H]24)[C@@H](OC)[C@@H]1O
inactive: inhibition [1] | Activity (HCT-8) | Activity (A549) | Activity (WB-F344) | Activity (MCF7) | Activity (BGC-823) | Activity (KETR3) | inhibition (Liver microsomes) | Activity (Bel-7402)

CCN1C[C@]2(COC)CC[C@H](OC)[C@]34C1[C@H](C[C@H]23)[C@]1(O)[C@H]2[C@@H](OC(=O)c3ccccc3)[C@H](C[C@H]24)[C@@H](OC)[C@@H]1O
inactive: inhibition [1] | Activity (HCT-8) | Activity (A549) | Activity (WB-F344) | Activity (MCF7) | Activity (BGC-823) | Activity (KETR3) | inhibition (Liver microsomes) | Activity (Bel-7402)

COC[C@]12CN(C)C3[C@@H]4[C@H](OC)[C@H]1[C@@]3([C@@H](OC)C[C@H]2OC(C)=O)[C@@H]1C[C@@]2(O)[C@H](OC(=O)c3ccccc3)[C@@H]1[C@]4(O)[C@@H](OC(C)=O)[C@@H]2OC
inactive: inhibition [1] | Activity (HCT-8) | Activity (A549) | Activity (WB-F344) | Activity (MCF7) | Activity (BGC-823) | Activity (KETR3) | inhibition (Liver microsomes) | Activity (Bel-7402)

C=C1C[C@]23C4[C@@H](OC(=O)[C@@H](C)CC)[C@H]1[C@@H](O)[C@H]2[C@]12C[C@@H](OC(=O)CC)C[C@]5(C)[C@H]1[C@H]([C@@H]3O)[N+](C)([C@H]42)[C@H]5O
inactive: inhibition [1] | Activity (HCT-8) | Activity (A549) | Activity (WB-F344) | Activity (MCF7) | Activity (BGC-823) | Activity (KETR3) | inhibition (Liver microsomes) | Activity (Bel-7402)

C=C1C[C@]23C4[C@@H](OC(=O)[C@@H](C)CC)[C@H]1[C@@H](O)[C@H]2[C@]12C[C@@H](OC(=O)C(C)C)C[C@]5(C)[C@H]1[C@H]([C@@H]3O)[N+](C)([C@H]42)[C@H]5O
inactive: inhibition [1] | Activity (HCT-8) | Activity (A549) | Activity (WB-F344) | Activity (MCF7) | Activity (BGC-823) | Activity (KETR3) | inhibition (Liver microsomes) | Activity (Bel-7402)
